Here are results for 26 molecules from US10730863B2, “Bridged bicyclic compounds as farnesoid X receptor modulators” (BRISTOL-MYERS SQUIBB COMPANY, priority 2017, dated 2020).

pEC50: −log10 of the molar value.

This experiment has as its target FXR (Homo sapiens (Human), UniProt Q96RI1). The experiment in a line: FXR EC50 (FXR agonist activity reported with each example). The format is cell-based.

Chain of FXR (Q96RI1 262-486): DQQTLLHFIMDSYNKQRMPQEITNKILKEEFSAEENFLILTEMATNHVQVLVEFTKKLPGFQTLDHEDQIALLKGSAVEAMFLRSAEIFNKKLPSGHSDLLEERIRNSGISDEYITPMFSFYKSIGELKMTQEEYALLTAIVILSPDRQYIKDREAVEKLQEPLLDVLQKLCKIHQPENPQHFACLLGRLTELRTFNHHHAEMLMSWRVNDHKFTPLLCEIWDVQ

Broadly, the pEC50 is −log10 of the EC50, conventionally taken in molar units. Read a low pEC50 as a high EC50. Take `O=C(O)c1ccc(OC2CCCC2)c2nc(C34CCC(OCc5c(-c6c(Cl)cncc6Cl)noc5C5CC5)(CC3)CC4)ccc12` [Example 408]: the pEC50 is 8.00.
The result for `O=C(O)c1cnn(CC23CCC(OCc4c(-c5c(Cl)cccc5Cl)noc4C4CC4)(CC2)CC3)c1` [Example 76, 1-((4-((5-cyclopropyl-3-(2,6-dichlorophenyl)isoxazol-4-yl)methoxy)bicyclo[2.2.2]octan-1-yl)methyl)-1H-pyrazole-4-carboxylic acid] reads 6.54; that for `O=C(O)c1cccc(-c2noc(C34CCC(OCc5c(-c6c(Cl)cncc6Cl)noc5C5CC5)(CC3)CO4)n2)c1` [Example 206], 6.31.
With `CC(C)Oc1cc(C(=O)O)nc2ccc(C#CC34CCC(OCc5c(-c6c(Cl)cncc6Cl)noc5C5CC5)(CC3)CC4)cc12` [Example 390], the pEC50 was 7.70.
`O=C(O)c1cccc2nc(C34CCC(C=Cc5c(-c6ccccc6OC(F)(F)F)noc5C5CC5)(CC3)CC4)sc12` [Example 183] had a pEC50 of 7.89. This pEC50 and that of the molecule before are within 0.2 log units of each other.
For the molecule `O=C(O)c1cc(C#CC23CCC(OCc4c(-c5c(Cl)cncc5Cl)noc4C4CC4)(CC2)CC3)cc(C(F)(F)F)c1` [Example 366], the negative-log EC50 (pEC50) was 7.57.
`O=C(O)c1cc(C(F)(F)F)c2nccc(C34CCC(OCc5c(-c6c(Cl)cncc6Cl)noc5C5CC5)(CC3)CC4)c2c1` [Example 372] gave a pEC50 of 6.24.
`O=C(O)c1cc(C(F)(F)F)cc2nc(C34CCC(OCc5c(-c6c(Cl)cncc6Cl)noc5C5CC5)(CC3)CC4)ccc12` [Example 420] showed a pEC50 of 8.52.
To `O=C(O)c1cc(OCC23CCC(/C=C/c4c(-c5c(Cl)cncc5Cl)noc4C4CC4)(CC2)OC3)cc(C(F)(F)F)c1` [Example 473, (E)-3-((1-(2-(5-cyclopropyl-3-(3,5-dichloropyridin-4-yl)isoxazol-4-yl)vinyl)-2-oxabicyclo[2.2.2]octan-4-yl)methoxy)-5-(trifluoromethyl)benzoic acid] belongs 6.49.
The result for `O=C(O)c1cc(F)cc(OCC23CCC(OCc4c(-c5c(Cl)cccc5Cl)noc4C4CC4)(CC2)CC3)c1` [Example 94, 3-((4-((5-cyclopropyl-3-(2,6-dichlorophenyl)isoxazol-4-yl)methoxy)bicyclo[2.2.2]octan-1-yl)methoxy)-5-fluorobenzoic acid] reads 7.74; that for `O=C(O)c1ccc(-c2noc(C34CCC(OCc5c(-c6ccccc6OC(F)(F)F)noc5C5CC5)(CC3)CC4)n2)nc1` [Example 42], 5.82.
Consider `COc1cncc(Cl)c1-c1noc(C2CC2)c1/C=C/C12CCC(c3ccc(C(C)(C)C(=O)O)cc3)(CC1)OC2` [Example 483, (E)-2-(4-(4-(2-(3-(3-chloro-5-methoxypyridin-4-yl)-5-cyclopropylisoxazol-4-yl)vinyl)-2-oxabicyclo[2.2.2]octan-1-yl)phenyl)-2-methylpropanoic acid], for which the pEC50 was 5.35.
Regarding `O=C(O)c1ccc(OCC23CCC(OCc4c(-c5c(Cl)cncc5Cl)noc4C4CC4)(CC2)CC3)c(F)c1` [Example 276, 4-((4-((5-cyclopropyl-3-(3,5-dichloropyridin-4-yl)isoxazol-4-yl)methoxy)bicyclo[2.2.2]octan-1-yl)methoxy)-3-fluorobenzoic acid], the pEC50 was 6.77.
`O=C(O)c1cn(CC23CCC(OCc4c(-c5c(Cl)cccc5Cl)noc4C4CC4)(CC2)CC3)nc1C(F)F` [Example 268, 1-((4-((5-cyclopropyl-3-(2,6-dichlorophenyl)isoxazol-4-yl)methoxy)bicyclo[2.2.2]octan-1-yl)methyl)-3-(difluoromethyl)-1H-pyrazole-4-carboxylic acid]: the pEC50 was 6.34.
As to `O=C(O)c1cc(C#CC23CCC(OCc4c(-c5c(Cl)cncc5Cl)noc4C4CC4)(CC2)CC3)cc2[nH]ccc12` [Example 415], the pEC50 was 7.20.
Take `O=C(O)c1cc(F)c2nc(C34CCC(OCc5c(-c6c(Cl)cncc6Cl)noc5C5CC5)(CC3)CC4)sc2c1` [Example 231, 2-(4-((5-cyclopropyl-3-(3,5-dichloropyridin-4-yl)isoxazol-4-yl)methoxy)bicyclo[2.2.2]octan-1-yl)-4-fluorobenzo[d]thiazole-6-carboxylic acid]: the pEC50 is 7.28. This pEC50 and that of the molecule before are within 0.2 log units of each other.
In the case of `O=C(O)c1cc(OCC23CCC(/C=C/c4c(-c5c(Cl)cncc5Cl)noc4C4CC4)(CC2)CC3)cc(OC(F)F)c1` [Example 444, (E)-3-((4-(2-(5-cyclopropyl-3-(3,5-dichloropyridin-4-yl)isoxazol-4-yl)vinyl)bicyclo[2.2.2]octan-1-yl)methoxy)-5-(difluoromethoxy)benzoic acid], the pEC50 was 7.80. Compared with the last molecule, the pEC50 is 0.52 log units higher.
Regarding `O=C(O)c1cccc(NC(=O)C23CCC(C=Cc4c(-c5c(Cl)cccc5Cl)noc4C4CC4)(CC2)C3)c1` [Example 230], the pEC50 is 6.05.
`O=C(O)c1cc(OC2CCC2)c2cc(C#CC34CCC(OCc5c(-c6c(Cl)cncc6Cl)noc5C5CC5)(CC3)CC4)ccc2n1` [Example 402]: the pEC50 was 7.28.
Molecule `COc1c(C(=O)O)cc(F)cc1-c1noc(C23CCC(OCc4c(-c5c(Cl)cncc5Cl)noc4C4CC4)(CC2)CC3)n1` [Example 245, 3-(5-(4-((5-cyclopropyl-3-(3,5-dichloropyridin-4-yl)isoxazol-4-yl)methoxy)bicyclo[2.2.2]octan-1-yl)-1,2,4-oxadiazol-3-yl)-5-fluoro-2-methoxybenzoic acid] showed a pEC50 of 7.34. The pEC50 values of the last two molecules are within 0.2 log units of each other.
The molecule `O=C(O)c1ccc(-c2noc(C34CCC(C=Cc5c(-c6c(Cl)cccc6Cl)noc5C5CC5)(CC3)C4)n2)cc1` [Example 226, 4-(5-(4-(2-(5-cyclopropyl-3-(2,6-dichlorophenyl)isoxazol-4-yl)vinyl)bicyclo[2.2.1]heptan-1-yl)-1,2,4-oxadiazol-3-yl)benzoic acid] gave a pEC50 of 6.38.
To `O=C(O)c1cccc(-c2noc(C34CCC(OCc5c(-c6c(Cl)cccc6Cl)noc5C5CC5)(CC3)CC4)n2)n1` [Example 13, 6-(5-(4-((5-cyclopropyl-3-(2,6-dichlorophenyl)isoxazol-4-yl)methoxy)bicyclo[2.2.2]octan-1-yl)-1,2,4-oxadiazol-3-yl)picolinic acid] belongs 6.57; to `O=C(O)c1ccc(OC2CCC2)c2nc(OCC34CCC(OCc5c(-c6c(Cl)cncc6Cl)noc5C5CC5)(CC3)CC4)ccc12` [Example 349, 8-cyclobutoxy-2-((4-((5-cyclopropyl-3-(3,5-dichloropyridin-4-yl)isoxazol-4-yl)methoxy)bicyclo[2.2.2]octan-1-yl)methoxy)quinoline-5-carboxylic acid], 6.89; to `O=C(O)c1cc(C(F)(F)F)c2cc(OCC34CCC(/C=C/c5c(-c6c(Cl)cncc6Cl)noc5C5CC5)(CC3)CO4)ccc2n1` [Example 500, (E)-6-((4-(2-(5-cyclopropyl-3-(3,5-dichloropyridin-4-yl)isoxazol-4-yl)vinyl)-2-oxabicyclo[2.2.2]octan-1-yl)methoxy)-4-(trifluoromethyl)quinoline-2-carboxylic acid], 6.80.
Regarding `Cc1cc(C#CC23CCC(OCc4c(-c5c(Cl)cncc5Cl)noc4C4CC4)(CC2)CC3)cnc1C(=O)O` [Example 388], the pEC50 was 7.26. This pEC50 is 0.46 log units higher than that of the molecule before.
The result for `O=C(O)c1cc(NC(=O)C23CCC(OCc4c(-c5c(Cl)cncc5Cl)noc4C4CC4)(CC2)CC3)cc(C(F)(F)F)c1` [Example 433, 3-(4-((5-cyclopropyl-3-(3,5-dichloropyridin-4-yl)isoxazol-4-yl)methoxy)bicyclo[2.2.2]octane-1-carboxamido)-5-(trifluoromethyl)benzoic acid] reads 5.89.
